Reference: the NIST ThermoML archive (doi:10.1021/je100362p)
Numbers after ± are expanded uncertainties.

Columns and labels:
[1] = xn = mol fraction of the nth substance listed; conditions: 101 kPa, Liquid; for speed of sound: Sing-around technique in a fixed-path interferometer
[2] = refractive index (Na D-line) (dimensionless); xn = mol fraction of the nth substance listed; conditions: 101 kPa, Liquid, Standard Abbe refractometry

Cc1ccccc1O [2-methylphenol] + CCCCCCCCCCO
Conditions	mass density, 298.15 K [kg/m3]	mass density, 303.15 K [kg/m3]	mass density, 308.15 K [kg/m3]	refractive index, 298.15 K	refractive index, 303.15 K	refractive index, 308.15 K	speed of sound, 298.15 K [m/s]	speed of sound, 303.15 K [m/s]	speed of sound, 308.15 K [m/s]
[1], x1 = 0.0861	837.502 ± 0.53	834.018 ± 0.54	830.549 ± 0.54	–	–	–	1385.1 ± 1.1	1368 ± 1.1	1351.1 ± 1.1
[1], x1 = 0.1516	846.353 ± 0.51	842.829 ± 0.52	839.316 ± 0.53	–	–	–	1389.3 ± 1.1	1372.1 ± 1.1	1355.2 ± 1.1
[1], x1 = 0.2077	854.319 ± 0.49	850.761 ± 0.5	847.206 ± 0.51	–	–	–	1393 ± 1.1	1375.7 ± 1.1	1358.8 ± 1.1
[1], x1 = 0.2717	863.895 ± 0.47	860.293 ± 0.48	856.691 ± 0.49	–	–	–	1397.2 ± 1.1	1379.9 ± 1.1	1363.1 ± 1
[1], x1 = 0.334	873.784 ± 0.45	870.135 ± 0.46	866.475 ± 0.47	–	–	–	1401.6 ± 1.1	1384.3 ± 1.1	1367.4 ± 1
[1], x1 = 0.4103	886.741 ± 0.43	883.035 ± 0.43	879.298 ± 0.44	–	–	–	1407.6 ± 1.1	1390.3 ± 1.1	1373.2 ± 1
[1], x1 = 0.4797	899.465 ± 0.4	895.693 ± 0.41	891.869 ± 0.41	–	–	–	1413.7 ± 1.1	1396.5 ± 1	1379.2 ± 1
[1], x1 = 0.5545	914.345 ± 0.37	910.475 ± 0.38	906.559 ± 0.38	–	–	–	1421.3 ± 1.1	1404 ± 1	1386.8 ± 1
[1], x1 = 0.6165	927.694 ± 0.34	923.735 ± 0.35	919.727 ± 0.36	–	–	–	1428.4 ± 1.1	1411.1 ± 1	1394.1 ± 1
[1], x1 = 0.6875	944.316 ± 0.31	940.209 ± 0.32	936.089 ± 0.32	–	–	–	1437.8 ± 1.1	1420.7 ± 1	1403.7 ± 1
[1], x1 = 0.7538	961.343 ± 0.28	957.079 ± 0.28	952.828 ± 0.29	–	–	–	1448.2 ± 1.1	1431 ± 1	1414.1 ± 1
[1], x1 = 0.8245	981.399 ± 0.24	976.894 ± 0.24	972.475 ± 0.25	–	–	–	1461.2 ± 1.1	1444 ± 1	1426.8 ± 1
[1], x1 = 0.8811	999.121 ± 0.2	994.379 ± 0.21	989.769 ± 0.22	–	–	–	1473.5 ± 1.1	1456.2 ± 1	1439.1 ± 1
[1], x1 = 0.941	1019.75 ± 0.24	1014.71 ± 0.23	1009.79 ± 0.22	–	–	–	1488.8 ± 1.1	1471.6 ± 1.1	1454.4 ± 1
[1], x1 = 1	1042.32 ± 0.27	1036.94 ± 0.26	1031.55 ± 0.25	–	–	–	1504.6 ± 1.1	1487.4 ± 1.1	1470.3 ± 1
[2], x1 = 0.0861	–	–	–	1.43944 ± 0.00056	1.43742 ± 0.00057	1.43507 ± 0.00057	–	–	–
[2], x1 = 0.1516	–	–	–	1.44351 ± 0.00057	1.44139 ± 0.00058	1.43893 ± 0.00059	–	–	–
[2], x1 = 0.2077	–	–	–	1.44727 ± 0.00058	1.44505 ± 0.0006	1.44249 ± 0.00061	–	–	–
[2], x1 = 0.2717	–	–	–	1.45185 ± 0.00061	1.44952 ± 0.00061	1.44685 ± 0.00062	–	–	–
[2], x1 = 0.334	–	–	–	1.45667 ± 0.00063	1.45426 ± 0.00063	1.45145 ± 0.00064	–	–	–
[2], x1 = 0.4103	–	–	–	1.46311 ± 0.00065	1.46058 ± 0.00066	1.45761 ± 0.00066	–	–	–
[2], x1 = 0.4797	–	–	–	1.46956 ± 0.00068	1.46691 ± 0.00068	1.46379 ± 0.00068	–	–	–
[2], x1 = 0.5545	–	–	–	1.47719 ± 0.00069	1.47444 ± 0.0007	1.47117 ± 0.0007	–	–	–
[2], x1 = 0.6165	–	–	–	1.48412 ± 0.0007	1.48132 ± 0.00071	1.47792 ± 0.00072	–	–	–
[2], x1 = 0.6875	–	–	–	1.49283 ± 0.00072	1.49001 ± 0.00073	1.48643 ± 0.00075	–	–	–
[2], x1 = 0.7538	–	–	–	1.50182 ± 0.00074	1.49892 ± 0.00075	1.49522 ± 0.00076	–	–	–
[2], x1 = 0.8245	–	–	–	1.51242 ± 0.00074	1.50948 ± 0.00076	1.50566 ± 0.00078	–	–	–
[2], x1 = 0.8811	–	–	–	1.52175 ± 0.00074	1.51879 ± 0.00077	1.51489 ± 0.0008	–	–	–
[2], x1 = 0.941	–	–	–	1.53252 ± 0.00075	1.52952 ± 0.00078	1.52555 ± 0.00081	–	–	–
[2], x1 = 1	–	–	–	1.544 ± 0.0007	1.54099 ± 0.00078	1.53699 ± 0.00087	–	–	–

Cc1cccc(O)c1 [3-methylphenol] + CCCCCCCCCCO
Conditions	mass density, 298.15 K [kg/m3]	mass density, 303.15 K [kg/m3]	mass density, 308.15 K [kg/m3]	refractive index, 298.15 K	refractive index, 303.15 K	refractive index, 308.15 K	speed of sound, 298.15 K [m/s]	speed of sound, 303.15 K [m/s]	speed of sound, 308.15 K [m/s]
[1], x1 = 0.0818	836.406 ± 0.53	832.948 ± 0.54	829.481 ± 0.55	–	–	–	1384.4 ± 1.1	1367.3 ± 1.1	1350.5 ± 1.1
[1], x1 = 0.1443	844.417 ± 0.52	840.933 ± 0.52	837.44 ± 0.53	–	–	–	1388.1 ± 1.1	1371 ± 1.1	1354.3 ± 1.1
[1], x1 = 0.2191	854.601 ± 0.49	851.084 ± 0.5	847.557 ± 0.51	–	–	–	1392.5 ± 1.1	1375.5 ± 1.1	1358.6 ± 1.1
[1], x1 = 0.27	861.935 ± 0.48	858.394 ± 0.48	854.842 ± 0.49	–	–	–	1395.7 ± 1.1	1378.5 ± 1.1	1361.8 ± 1
[1], x1 = 0.3513	874.407 ± 0.45	870.825 ± 0.46	867.235 ± 0.47	–	–	–	1400.5 ± 1.1	1383.7 ± 1.1	1366.8 ± 1
[1], x1 = 0.4154	884.964 ± 0.43	881.35 ± 0.44	877.727 ± 0.44	–	–	–	1404.8 ± 1.1	1388 ± 1	1371.2 ± 1
[1], x1 = 0.4864	897.533 ± 0.4	893.881 ± 0.41	890.219 ± 0.42	–	–	–	1410.1 ± 1.1	1393.4 ± 1	1376.6 ± 1
[1], x1 = 0.5447	908.582 ± 0.38	904.899 ± 0.39	901.205 ± 0.39	–	–	–	1415.1 ± 1.1	1398.3 ± 1	1381.5 ± 1
[1], x1 = 0.6205	924.111 ± 0.35	920.384 ± 0.35	916.647 ± 0.36	–	–	–	1422.3 ± 1	1405.6 ± 1	1388.9 ± 1
[1], x1 = 0.6951	940.809 ± 0.31	937.04 ± 0.32	933.259 ± 0.33	–	–	–	1430.7 ± 1	1414 ± 1	1397.5 ± 1
[1], x1 = 0.7472	953.452 ± 0.29	949.651 ± 0.3	945.837 ± 0.3	–	–	–	1437.2 ± 1	1420.7 ± 1	1404.4 ± 1
[1], x1 = 0.8163	971.635 ± 0.25	967.793 ± 0.26	963.936 ± 0.27	–	–	–	1447.3 ± 1	1431.1 ± 1	1414.8 ± 1
[1], x1 = 0.8738	988.185 ± 0.22	984.309 ± 0.23	980.414 ± 0.23	–	–	–	1457.3 ± 1	1441 ± 1	1424.9 ± 1
[1], x1 = 0.9325	1006.6 ± 0.21	1002.69 ± 0.2	998.753 ± 0.2	–	–	–	1468.8 ± 1	1452.8 ± 1	1436.8 ± 1
[1], x1 = 1	1030.05 ± 0.25	1026.09 ± 0.24	1022.12 ± 0.23	–	–	–	1480.9 ± 1	1465.2 ± 1	1449.6 ± 1
[2], x1 = 0.0818	–	–	–	1.43899 ± 0.00058	1.43686 ± 0.00056	1.43464 ± 0.00055	–	–	–
[2], x1 = 0.1443	–	–	–	1.44269 ± 0.00059	1.44048 ± 0.00058	1.43816 ± 0.00057	–	–	–
[2], x1 = 0.2191	–	–	–	1.44749 ± 0.00061	1.44514 ± 0.0006	1.44269 ± 0.00059	–	–	–
[2], x1 = 0.27	–	–	–	1.45104 ± 0.00063	1.44858 ± 0.00062	1.44602 ± 0.0006	–	–	–
[2], x1 = 0.3513	–	–	–	1.45712 ± 0.00066	1.45453 ± 0.00064	1.45183 ± 0.00062	–	–	–
[2], x1 = 0.4154	–	–	–	1.46234 ± 0.00068	1.45965 ± 0.00065	1.45687 ± 0.00063	–	–	–
[2], x1 = 0.4864	–	–	–	1.46869 ± 0.0007	1.46584 ± 0.00067	1.46299 ± 0.00064	–	–	–
[2], x1 = 0.5447	–	–	–	1.47429 ± 0.00072	1.47138 ± 0.00068	1.46848 ± 0.00064	–	–	–
[2], x1 = 0.6205	–	–	–	1.48226 ± 0.00073	1.47932 ± 0.00069	1.47636 ± 0.00064	–	–	–
[2], x1 = 0.6951	–	–	–	1.49092 ± 0.00072	1.48799 ± 0.00069	1.48499 ± 0.00066	–	–	–
[2], x1 = 0.7472	–	–	–	1.49755 ± 0.00073	1.49459 ± 0.00069	1.49161 ± 0.00065	–	–	–
[2], x1 = 0.8163	–	–	–	1.50709 ± 0.00073	1.50419 ± 0.00068	1.50126 ± 0.00064	–	–	–
[2], x1 = 0.8738	–	–	–	1.51581 ± 0.00072	1.51296 ± 0.00067	1.51007 ± 0.00064	–	–	–
[2], x1 = 0.9325	–	–	–	1.5256 ± 0.00073	1.52274 ± 0.00068	1.51982 ± 0.00063	–	–	–
[2], x1 = 1	–	–	–	1.538 ± 0.0007	1.535 ± 0.0007	1.532 ± 0.0007	–	–	–
